What was measured:
[1] = system: Human immunodeficiency virus 1; assay: Antiviral activity against wild type HIV1 LAI infected in human MT4 cells assessed as protection against virus-induced cytopathicity after 5 days by MTT assay; type: functional, organism-based; conditions: Human immunodeficiency virus 1, LAI, MT4, 120 h
[2] = system: Human immunodeficiency virus 1; assay: Antiviral activity against HIV1 harboring reverse transcriptase L100I/K103N double mutant infected in human MT4 cells assessed as protection against virus-induced cytopathicity after 5 days by MTT assay; type: functional, organism-based; conditions: Human immunodeficiency virus 1, MT4, 120 h
[3] = system: Human immunodeficiency virus 1; assay: Antiviral activity against HIV1 harboring reverse transcriptase K103N/Y181C double mutant infected in human MT4 cells assessed as protection against virus-induced cytopathicity after 5 days by MTT assay; type: functional, organism-based; conditions: Human immunodeficiency virus 1, MT4, 120 h
[4] = Cytotoxicity against mock-infected human MT4 cells assessed as cell viability after 5 days by MTT assay; type: cell-based
[5] = system: Human immunodeficiency virus 1; assay: Antiviral activity against HIV1 RES056 harboring reverse transcriptase K103N/Y181C double mutant infected in human MT4 cells assessed as protection against virus-induced cytopathicity after 5 days by MTT assay; type: functional, organism-based
[6] = Selectivity index, ratio of CC50 for mock-infected human MT4 cells to EC50 for wild type HIV1 3B
[7] = system: Human immunodeficiency virus 1; assay: Antiviral activity against wild type HIV1 3B infected in human MT4 cells assessed as protection against virus-induced cytopathicity after 5 days by MTT assay; type: functional, organism-based; conditions: Human immunodeficiency virus 1, 3B, MT4, 120 h
[8] = system: Human immunodeficiency virus 2; assay: Antiviral activity against HIV2 ROD infected in human MT4 cells assessed as protection against virus-induced cytopathicity after 5 days by MTT assay; type: functional, organism-based, ISOLATE ROD
[9] = target: Human immunodeficiency virus type 1 reverse transcriptase (Human immunodeficiency virus 1, UniProt Q72547); assay: Inhibition of HIV 1 reverse transcriptase assessed as incorporation of biotin-dUTP into poly rA.dT by ELISA

Compound | EC50 [1] [µM] | EC50 [2] [µM] | EC50 [3] [µM] | CC50 at 120 h [4] [µM] | EC50 ([5]; mt4) | selectivity ratio ([6]; mock-infected MT4 cells) | EC50 [7] [µM] | EC50 ([8]; mt4) | IC50 [9] [µM] | EC50 ([5]; Human immunodeficiency virus 1, RES056, MT4, 120 h, read-out: EC50) [µM] | selectivity ratio ([6]; mt4) | EC50 ([8]; Human immunodeficiency virus 2, ISOLATE ROD, MT4, 120 h, read-out: EC50) [µM]
Cc1cc(C#N)cc(C)c1Oc1nc(Nc2ccc(C#N)cc2)c(=O)n(C)c1C | 0.006 | 0.158 | 0.061 | – | – | – | – | – | – | – | – | –
Cc1cc(C#N)cc(C)c1Oc1ccc(=O)n(Nc2ccc(C#N)cc2)n1 | 1.75 | – | – | – | – | – | – | – | – | – | – | –
Cc1ccc(Nc2cc(Oc3c(C)cc(C)cc3C)c(=O)[nH]n2)cc1 | – | – | – | 185 | Not Active | 119 | 1.55 | Not Active | – | – | – | –
Cc1cc(C)c(Oc2cc(Nc3ccc([N+](=O)[O-])cc3)n[nH]c2=O)c(C)c1 | – | – | – | 37.1 | Not Active | 7 | 5.08 | Not Active | – | – | – | –
COc1ccc(Nc2cc(Oc3c(C)cc(C)cc3C)c(=O)[nH]n2)cc1 | – | – | – | 5.88 | Not Active | 4 | 1.59 | Not Active | – | – | – | –
Cc1cc(C)c(Oc2cc(Nc3ccc(C#N)cc3)n[nH]c2=O)c(C)c1 | – | – | – | 47 | Not Active | 180 | 0.26 | Not Active | – | – | – | –
N#Cc1ccc(Nc2cc(Oc3c(Cl)cc(Cl)cc3Cl)c(=O)[nH]n2)cc1 | – | – | – | 35 | Not Active | – | ≥ 9.2 | Not Active | – | – | – | –
N#Cc1ccc(Nc2cc(Oc3c(Br)cc(Br)cc3Br)c(=O)[nH]n2)cc1 | – | – | – | 139 | Not Active | 221 | 0.63 | Not Active | – | – | – | –
Cc1cc(Br)c(Oc2cc(Nc3ccc(C#N)cc3)n[nH]c2=O)c(Br)c1 | – | – | – | 154 | Not Active | 733 | 0.21 | Not Active | – | – | – | –
Cc1cc(Br)cc(C)c1Oc1cc(Nc2ccc(C#N)cc2)n[nH]c1=O | – | – | – | 19.5 | Not Active | 16 | 1.19 | Not Active | – | – | – | –
Cc1cc(C)c(Oc2cc(Nc3cccc(Cl)c3)n[nH]c2=O)c(C)c1 | – | – | – | 119 | Not Active | 8 | 14.4 | Not Active | – | – | – | –
Cc1cccc(C)c1Oc1cc(Nc2ccc(C#N)cc2)n[nH]c1=O | – | – | – | 205 | Not Active | 108 | 1.9 | Not Active | – | – | – | –
Cc1cc(C#N)cc(C)c1Oc1cc(Nc2ccc(C#N)cc2)n[nH]c1=O | – | – | – | 272 | Not Active | 96 | 2.83 | Not Active | – | – | – | –
Cc1cc(C)c(Oc2cc(Nc3ccc(C#N)cc3)nn(C)c2=O)c(C)c1 | – | – | – | 143 | Not Active | 123 | 1.16 | Not Active | – | – | – | –
Cc1cc(C)c(Oc2cc(N(C)c3ccc(C#N)cc3)nn(C)c2=O)c(C)c1 | – | – | – | ≥ 246 | Not Active | ≥ 73 | 3.36 | Not Active | – | – | – | –
Cc1cc(C)c(Oc2cc(Nc3ccc(Cl)cc3)nnc2Cl)c(C)c1 | – | – | – | 210 | Not Active | 1510 | 0.139 | Not Active | – | – | – | –

Compound | EC50 [1] [µM] | EC50 [2] [µM] | EC50 [3] [µM] | CC50 at 120 h [4] [µM] | EC50 ([5]; mt4) | selectivity ratio ([6]; mock-infected MT4 cells) | EC50 [7] [µM] | EC50 ([8]; mt4) | IC50 [9] [µM] | EC50 ([5]; Human immunodeficiency virus 1, RES056, MT4, 120 h, read-out: EC50) [µM] | selectivity ratio ([6]; mt4) | EC50 ([8]; Human immunodeficiency virus 2, ISOLATE ROD, MT4, 120 h, read-out: EC50) [µM]
Cc1ccc(Nc2cc(Oc3c(C)cc(C)cc3C)c(Cl)nn2)cc1 | – | – | – | 244 | Not Active | 1210 | 0.201 | Not Active | – | – | – | –
Cc1cc(C)c(Oc2cc(Nc3ccc([N+](=O)[O-])cc3)nnc2Cl)c(C)c1 | – | – | – | 0.94 | Not Active | < 1 | > 0.94 | Not Active | – | – | – | –
Cc1cc(C)c(Oc2cc(Nc3ccc(C#N)cc3)nnc2Cl)c(C)c1 | – | – | – | 36.3 | Not Active | 461 | 0.079 | Not Active | – | – | – | –
N#Cc1ccc(Nc2cc(Oc3c(Cl)cc(Cl)cc3Cl)c(Cl)nn2)cc1 | – | – | – | 18.6 | Not Active | 120 | 0.155 | Not Active | – | – | – | –
N#Cc1ccc(Nc2cc(Oc3c(Br)cc(Br)cc3Br)c(Cl)nn2)cc1 | – | – | – | 22.3 | Not Active | 124 | 0.18 | Not Active | – | – | – | –
Cc1cc(Br)c(Oc2cc(Nc3ccc(C#N)cc3)nnc2Cl)c(Br)c1 | – | – | – | 19.2 | Not Active | 565 | 0.034 | Not Active | 3.18 | – | – | –
Cc1cc(Br)cc(C)c1Oc1cc(Nc2ccc(C#N)cc2)nnc1Cl | – | – | – | 84.1 | Not Active | 210 | 0.4 | Not Active | – | – | – | –
COc1cccc(OC)c1Oc1cc(Nc2ccc(C#N)cc2)nnc1Cl | – | – | – | 2.9 | Not Active | < 1 | > 2.9 | Not Active | – | – | – | –
N#Cc1ccc(Nc2cc(Oc3c(Cl)cccc3Cl)c(Cl)nn2)cc1 | – | – | – | 93.1 | Not Active | 423 | 0.22 | Not Active | – | – | – | –
Cc1cc(C#N)cc(C)c1Oc1cc(Nc2ccc(C#N)cc2)nnc1Cl | – | – | – | 53.2 | Not Active | 369 | 0.144 | Not Active | – | – | – | –
Cc1cccc(C)c1Oc1cc(Nc2ccc(C#N)cc2)nnc1Cl | – | – | – | 290 | Not Active | 537 | 0.54 | Not Active | – | – | – | –
Cc1cc(C)c(Oc2cc(Nc3ccc(Cl)cc3)n[nH]c2=O)c(C)c1 | – | – | – | 5.98 | Not Active | 8 | 0.78 | Not Active | – | – | – | –
CC(C)Nc1cccnc1N1CCN(C(=O)c2cc3cc(NS(C)(=O)=O)ccc3[nH]2)CC1 [DELAVIRDINE] | – | – | – | > 43.4 | Not Active | > 1030 | 0.042 | Not Active | – | – | – | –
O=C1Nc2ccc(Cl)cc2[C@@](C#CC2CC2)(C(F)(F)F)O1 [EFAVIRENZ] | – | – | – | > 2 | – | – | 0.007 | – | – | 0.59 | > 286 | 0.02
Cc1cc(C#N)cc(C)c1Oc1nc(Nc2ccc(C#N)cc2)nc(N)c1Br [ETRAVIRINE] | – | – | – | > 4.6 | – | – | – | Not Active | – | – | – | –
Cc1ccnc2c1NC(=O)c1cccnc1N2C1CC1 [NEVIRAPINE] | – | – | – | > 14.9 | Not Active | – | – | Not Active | – | – | – | –
